Measurements reported in US20240189449A1, “LIPID NANOPARTICLES AND POLYNUCLEOTIDES ENCODING ORNITHINE TRANSCARBAMYLASE FOR THE TREATMENT OF ORNITHINE TRANSCARBAMYLASE DEFICIENCY” (ModernaTX, Inc., priority 2021, published 2024).

What was measured:
[1] = test system: Sprague Dawley rats; assay: NPI-Luciferase expression, ex vivo liver bioluminescence, Sprague Dawley rats; assay type: in vivo; conditions: rat, IV
Experimental: (§1) To further assess potency of expression and metabolic stability of lipids of the disclosure, expression of luciferase was measured following administration to rodents of a nanoparticle of the disclosure comprising an mRNA containing luciferase.
(§2) Lipid nanoparticles including DSPC as a phospholipid, cholesterol as a structural lipid, Compound I as a PEG lipid, an ionizable amino lipid of Formula (II), and an mRNA encoding luciferase were intravenously administered to CD-1 mice and Sprague Dawley rats. The level of expression was tested via bioluminescence in the liver ex vivo at 6 hours after injection.

[2] = test system: Sprague Dawley rats; assay: Tolerability in rats: reporter antibody construct expression (ELISA) and liver toxicity; assay type: in vivo; conditions: IV
Experimental: To assess tolerability of the lipids of the disclosure, expression of a reporter antibody construct induced by sample formulations was assessed in rats.
Lipid nanoparticles including DSPC as a phospholipid, cholesterol as a structural lipid, Compound I as a PEG lipid, an ionizable amino lipid of Formula (II), and an mRNA encoding a reporter antibody construct were intravenously administered to Sprague Dawley rats. […] For the formulations tested, high levels of the reporter antibody were measured with minimal signs of liver toxicity (Table 15).

[3] = test system: Sprague Dawley rats; assay: Parent lipid remaining in liver tissue at 24 h, rats; assay type: in vivo; conditions: rat
[4] = test system: CD-1 mice; assay: Parent lipid remaining in liver at 24 h, CD-1 mice (hEPO mRNA LNPs); assay type: in vivo; conditions: for Approx. Percent Total Dose of Parent Lipid Remaining at 24 h: calculation assumes a 25 g mouse with a 1.5 g liver
[5] = test system: CD-1 mice; assay: hEPO expression in serum after IV lipid nanoparticles with hEPO mRNA, CD-1 mice; assay type: in vivo; conditions: LNP with DSPC, cholesterol, Compound I; for Mean 6 hr hEPO Concentration: serum 6 hours after injection
Experimental: To assess potency of expression and metabolic stability of lipids of the disclosure, hepatocyte protein expression (hEPO) was measured following administration to mice of a nanoparticle of the disclosure.
Lipid nanoparticles including DSPC as a phospholipid, cholesterol as a structural lipid, Compound I as a PEG lipid, an ionizable amino lipid of Formula (II), and an mRNA encoding hEPO were intravenously administered to CD-1 mice. The concentration of hEPO in serum was tested at 6 hours after injection.

[6] = test system: CD-1 mice; assay: NPI-Luciferase expression, ex vivo liver bioluminescence, CD-1 mice; assay type: in vivo; conditions: mouse, IV
Experimental: as §1, §2

[7] = test system: cynomolgus monkeys; assay: Luciferase level in livers ex vivo (ELISA), cynomolgus monkeys; conditions: IV
Experimental: To the assess potency of expression and metabolic stability of lipids of the disclosure in different species, the expression of an mRNA was measured following administration to non-human primates of a nanoparticle of the disclosure containing the mRNA.
Lipid nanoparticles including DSPC as a phospholipid, cholesterol as a structural lipid, Compound I as a PEG lipid, an ionizable amino lipid of Formula (II), and an mRNA encoding luciferase were intravenously administered to cynomolgus monkeys. The level of luciferase in livers ex vivo was measured via ELISA at 6 hours after injection.

[8] = test system: Sprague Dawley rats; assay: hEPO expression in serum after IV lipid nanoparticles with hEPO mRNA, Sprague Dawley rats; assay type: in vivo; conditions: serum 6 hours after injection
Experimental: To further assess potency of expression and metabolic stability of lipids of the disclosure, hepatocyte protein expression (hEPO) was measured following administration to rats of a nanoparticle of the disclosure.
Lipid nanoparticles including DSPC as a phospholipid, cholesterol as a structural lipid, Compound I as a PEG lipid, an ionizable amino lipid of Formula (II), and an mRNA encoding hEPO were intravenously administered to Sprague Dawley rats. The concentration of hEPO in serum was tested at 6 hours after injection.

Structure (SMILES) | Mean 6 h ex vivo Liver NPI-Luciferase Total Flux [1] | Mean Reporter Antibody Construct Concentration [2] | Approx. Percent Total Dose of Parent Lipid Remaining at 24 h [3] | Parent Lipid Remaining (nmol/g liver tissue) at 24 h [4] | Approx. Percent Total Dose of Parent Lipid Remaining at 24 h [4] | hEPO AUC [5] | Mean 6 hr hEPO Concentration [5] | Mean 6 h ex vivo Liver NPI-Luciferase Total Flux [6] | Mean 6 h NPI-Luciferase Concentration [7] | Mean 6 hr hEPO Concentration [8]
CCCCCCCCC(CCCCCCCC)OC(=O)CCCCCCCN(CCO)CCCCCCCC(=O)OCCC(CCCC)CCCC [Compound 22, 3-Butylheptyl 8-((8-(heptadecan-9-yloxy)-8-oxooctyl)(2-hydroxyethyl)amino)octanoate] | 2227666667 photons/second | 1113642 ng/mL | <0.1%^ | <0.1 nmol/g liver tissue | <0.1% | 2.03E+07 | 1264530 mIU/mL | 300960000 photons/second | 1322 ng/g | 
CCCCCC(CCCCC)CCOC(=O)CCCCCCCN(CCO)CCCCCCCC(=O)OCCC(CCCCC)CCCCC [Compound 25] | 4068000000 photons/second | 948617 ng/mL | <0.1%^ | 0.1 ± 0.04 nmol/g liver tissue | <0.1% | 1.07E+07 | 591942 mIU/mL | 336800000 photons/second |  | 
CCCCCCCCC(CCCCCCCC)OC(=O)CCCCCCCN(CCCCCCCC(=O)OCCC(CCCC)CCCC)CCCNc1c(NC)c(=O)c1=O [Compound 27, 3-Butylheptyl 8-((8-(heptadecan-9-yloxy)-8-oxooctyl)(3-((2-(methylamino)-3,4-dioxocyclobut-1-en-1-yl)amino)propyl)amino)octanoate] | 1215666667 photons/second | 833698 ng/mL | 28% | 27 ± 4 nmol/g liver tissue | 28% | 2.10E+07 | 1316011 mIU/mL | 357720000 photons/second | 878 ng/g | 664431 mIU/mL
CCCCCC(CCCCC)CCOC(=O)CCCCCCCN(CCCCCCCC(=O)OCCC(CCCCC)CCCCC)CCCNc1c(NC)c(=O)c1=O [Compound 30, Bis(3-pentyloctyl) 8,8′-((3-((2-(methylamino)-3,4-dioxocyclobut-1-en-1-yl)amino)propyl)azanediyl)dioctanoate] | 963633333.3 photons/second |  | 25% | 25 ± 4 nmol/g liver tissue | 26% | 2.40E+07 | 1592050 mIU/mL | 299800000 photons/second | 782 ng/g | 688780 mIU/mL
CCCCCC(CCCCC)CCOC(=O)CCCCCCCN(CCCCCCCC(=O)OCCC(CCCC)CCCC)CCCNc1c(NC)c(=O)c1=O [Compound 54, 3-Butylheptyl 8-((3-((2-(methylamino)-3,4-dioxocyclobut-1-en-1-yl)amino)propyl)(8-oxo-8-((3-pentyloctyl)oxy)octyl)amino)octanoate] |  |  |  | 12 ± 1 nmol/g liver tissue | 12% | 1.97E+07 | 647775 mIU/mL |  | 693 ng/g | 476742 mIU/mL
